Read-outs that look alike come from different tables or passages of the source.
Experiments:
[1] = test system: BJ normal fibroblast cell line; assay: MTT cytotoxicity, BJ normal fibroblasts; format: cell-based, human; settings: MTT test, 24 h treatment, BJ normal fibroblasts, concentration range 10-250 µM, read-out: IC50 BJ
Protocol: (§1) Biological studies were performed on human malignant melanoma G-361 (ATCC CRL-1424) cell lines and human fibroblast BJ (ATCC® CRL-2522™) cell lines purchased from the American Type Culture Collection (ATCC, Manassas, VA USA). The G-361 cell lines were maintained in McCoy’s medium (Corning, NY, USA), and the fibroblast BJ cell line was cultured in EMEM (Corning, NY, USA). All media were supplemented with 10% heat-inactivated fetal bovine serum (PAN-Biotech, Aidenbach, Germany), 100 U/mL penicillin, 100 μg/mL streptomycin and 0.25 μg/mL amphotericin B (Sigma-Aldrich, St. Louis, MO, USA). Cultures were maintained at 37 °C in a humidified atmosphere of 95% air and 5% CO2. The experiments were performed using cells from passage 5 to 10.
(§2) The cytotoxicity of the new compounds was evaluated against both the G-361 and BJ cell lines. Cells were seeded into 96-well plates at a density of 3 × 10^4 cells/well and 2 × 10^4 cells/well. After 24 h of incubation, when 70–80% confluence was reached, the culture medium was removed and replaced with the fresh one containing the tested compounds in the concentration range of 10, 25, 50, 75, 100, 125 and 250 μM. Cells were cultured at 37 °C in the presence of 5% air with CO2 for another 24 h. The cytotoxicity of the test compounds was evaluated by the MTT colorimetric assay, based on the ability of live cells to convert yellow soluble tetrazolium salts (3-[4,5-dimethylthiazol-2-yl]- 2,5-diphenyltetrazolium bromide, MTT) to purple insoluble formazan by cellular dehydrogenase. After 24 h of incubation with solutions of the test compounds, 4 mg/mL MTT solution (Thermo Scientific, Waltham, MA, USA) was added to the cell cultures and incubation was continued for 4 h at 37 °C. The MTT medium was then removed, and the resulting crystals were dissolved in 200 µL of DMSO. The solution was measured for absorbance at 570 nm using a Power Wave xs spectrophotometric plate reader, BioTek Instruments (Winooski, VT, USA). The experiment was performed three times with three replicates for each concentration. IC50 values were determined using the AAT Bioquest IC50 calculator.

G-361 melanoma = assay: MTT cytotoxicity, G-361 melanoma; format: cell-based, human; settings: for cytotoxic to melanoma cells (MTT test): G-361, concentration range used; for IC50: MTT test, 24 h treatment, G-361 melanoma
Protocol: as §1, §2

RP-TLC lipophilicity = format: physicochemical; settings: for RMW (chromatographic lipophilicity parameter): RP-18 plates, methanol-water 65-95%, extrapolated to 0% methanol; for -S TLC (slope of linear equation): Table S3
Protocol: RP-TLC analysis was performed using RP-18 TLC silica gel 60 F254 plates (10 × 20 cm, Merck, Darmstadt, Germany) with a DS-II chromatographic horizontal chamber (CHROMDES, Lublin, Poland). The mobile phase consisted of methanol (POCH, Gliwice, Poland) and water with the following concentrations of methanol: 65–95% (%, v/v), with a concentration change every 5%. After drying, the spots were observed under a UV lamp with a wavelength of 254 nm.

RP-HPLC lipophilicity = format: physicochemical; settings: for logkW (chromatographic lipophilicity parameter): Kinetex C18, methanol-water 55-80%, extrapolated to 0% methanol; for -S HPLC (slope of linear equation): Table S3
Protocol: RP-HPLC analysis was performed using a Merck-Hitachi LaChrom Elite System (Merck, Darmstadt, Germany) with diode array detector L-2455, thermostat L-2300, pump L-2130 and autosampler L-2200 with a Kinetex C18 (5µm; 150 × 4,6mm) chromatographic column (Phenomenex, Torrance, USA) as the stationary phase. The mobile phase consisted of methanol (Merck, Darmstadt, Germany) and water (double-distilled), which was degassed by use of the built-in membrane degasser. Subsequently, 5 μL methanolic solution (0.1%; m/v) of the selected samples was applied to the chromatographic column by use of a Hitachi L-2200 autosampler (LaChrom Elite, Hitachi-Merck, Darmstadt, Germany). The analysis was performed with a flow rate of 0.7 mL min^−1 in isocratic mode using various concentrations of organic modifier (methanol) in binary polar mobile phases; percentages of methanol in water were 55–80% (%, v/v) and changed by 5% per step. Chromatograms were detected at 254 nm and the temperature of the column was 25 °C. All experiments were repeated in triplicate and the final results were taken to be the arithmetic means. Dead time was measured using uracil (Calbiochem. Merck, Darmstadt, Germany).

Compound	IC50 [1]	cytotoxic to melanoma cells (MTT test) (G-361 melanoma)	RMW (chromatographic lipophilicity parameter) (RP-TLC lipophilicity)	-S TLC (slope of linear equation) (RP-TLC lipophilicity)	logkW (chromatographic lipophilicity parameter) (RP-HPLC lipophilicity)	-S HPLC (slope of linear equation) (RP-HPLC lipophilicity)	IC50 ([1]; Homo sapiens, Fibroblast)	IC50 (G-361 melanoma; Homo sapiens)	IC50 (G-361 melanoma)
O=C(COc1ccc(Cl)cc1Cl)NNC(=S)Nc1ccc(Br)cc1 [PK12, 1-(2,4-dichlorophenoxy)acetyl-4-(4-bromophenyl)thiosemicarbazide]	189 ± 7 µM	cytotoxic	3.5706	4.1984	4.3897	5.8565			
O=C(COc1ccc(Cl)cc1Cl)NNC(=S)Nc1ccccc1F [PK1, 1-(2,4-dichlorophenoxy)acetyl-4-(2-fluorophenyl)thiosemicarbazide]			2.6706	3.1923	3.4437	4.9238	> 250 µM	> 250 µM	
O=C(COc1ccc(Cl)cc1Cl)NNC(=S)Nc1cccc(Br)c1 [PK8, 1-(2,4-dichlorophenoxy)acetyl-4-(3-bromophenyl)thiosemicarbazide]	> 250 µM								> 250 µM
1-[[2-(2,4-Dichlorophenoxy)acetyl]amino]-3-[4-[[[2-(2,4-dichlorophenoxy)acetyl]amino]carbamoylamino]phenyl]thiourea [PK13]	> 250 µM								> 250 µM
O=C(COc1ccc(Cl)cc1Cl)NNC(=S)Nc1cccc(I)c1 [PK4, 1-(2,4-dichlorophenoxy)acetyl-4-(3-iodophenyl)thiosemicarbazide]	> 250 µM								> 250 µM
O=C(COc1ccc(Cl)cc1Cl)NNC(=S)Nc1ccccc1Br [PK11, 1-(2,4-dichlorophenoxy)acetyl-4-(2-bromophenyl)thiosemicarbazide]	217 ± 64.3 µM	cytotoxic	2.7832	3.3663	3.93	5.3438			162 ± 2 µM
O=C(COc1ccc(Cl)cc1Cl)NNC(=S)Nc1ccc(F)cc1 [PK5, 1-(2,4-dichlorophenoxy)acetyl-4-(4-fluorophenyl)thiosemicarbazide]	> 250 µM		2.7612	3.4335	3.8993	5.5119			> 250 µM
O=C(COc1ccc(Cl)cc1Cl)NNC(=S)Nc1cccc(F)c1 [PK10, 1-(2,4-dichlorophenoxy)acetyl-4-(3-fluorophenyl)thiosemicarbazide]	223 ± 7 µM	cytotoxic							218 ± 5.34 µM
O=C(COc1ccc(Cl)cc1Cl)NNC(=S)Nc1ccc([N+](=O)[O-])cc1 [PK3, 1-(2,4-dichlorophenoxy)acetyl-4-(4-nitrophenyl)thiosemicarbazide]	> 250 µM		2.4459	2.9474	2.7667	3.8522			> 250 µM
O=C(COc1ccc(Cl)cc1Cl)NNC(=S)Nc1ccc(I)cc1 [PK7, 1-(2,4-dichlorophenoxy)acetyl-4-(4-iodophenyl)thiosemicarbazide]		cytotoxic	3.8527	4.4553	4.5363	5.9005	216 ± 76 µM	99 ± 4 µM	

From paper PMC8961551, “Potential Anticancer Agents against Melanoma Cells Based on an As-Synthesized Thiosemicarbazide Derivative” (Biomolecules, 2022)
